The values that follow come from US20020177625A1, “Class of glaucoma drugs to enhance aqueous humor outflow and lower intra-ocular pressure” (The Regents of the University of California, a California …, priority 2001, published 2002).

Entries after “also recorded” stand apart in the source; their conditions may differ.

The experiment relates to human TM cells. Description: Whole cell patch clamp ion conductances of human TM cells. The experiment is classed as cell-based. On the procedure:
Further studies conducted with agents known to block Cl and K channels attenuate the swelling-activated regulatory volume decrease in TM cells and niflumic acid reduces both cell volume and intracellular [Cl] of TM cells. In these studies, human TM cells were cultured from donor eyes and used between passages three and eight. Routine whole cell patch clamp methods were used to assess conductances of TM cells in isotonic (290 mOsm) and hypotonic (230 mOsm) media, with or without NPPB, DIDS, TEA or niflumic acid. Conductances were determined from current/voltage plots, generated using a ramp protocol. […] The reversal potential observed in the presence of hypotonic medium was close to the calculated reversal potential for Cl. Switching to an external medium containing reduced Cl shifted the reversal potential toward that calculated for the low Cl medium. Treating the TM cells with the Cl channel blocker NPPB (100 μM) abolished the swelling-activated conductance in a manner reversed by subsequent washout of NPPB. […] Finally, treatment of the cells with the K channel blocker TEA (1 mM) also abolished the niflumic acid-activated TM cell conductance.
Human TM and SC cells grown to subconfluence are gently trypsinized on the day of the experiment and immediately exposed to trypsin-neutralizing solution and then allowed to settle onto standard square (22×22-mm) glass coverslips for 30 minutes before use. Routine patch clamp methods were used as described previously Barakat, A. I., et al., Circulation Research, 85: 820-828, 1999; Hamill, O. P. et al., Pflügers Archives, 391: 85-100, 1981; Mauro, T. et al., J of Invest. Dermatology, 105: 203-208, 1995; Pappone, P. A. et al., J. of Physiology, 306:377-410, 1980; Pappone, P. A. et al., J of Gen. Physiology, 106: 231-258, 1995; Pappone, P. A. et al., Amer. J. of Physiology: Cell Physiology, 264: C1014-C1019, 1993; Wilson, S. M. et al., J. of Gen. Physiology, 113: 125-138, 1999. Using the whole cell patch clamp mode, conductances were assessed for isotonic and hypotonic media. By assessing current/voltage (I/V) relationships and reversal potentials for the TM and SC cells while using specific concentrations of Cl in the pipette and bath media, the nature of the conductances observed can be determined.
Whole cell currents were measured at room temperature in a Warner recording/perfusion chamber (Warner Instrument Corp.) using standard whole-cell patch clamp techniques as described previously, Lucero, M. T. et al., J. of Gen. Physiology, 95:523-544, 1999. Thick-walled borosilicate capillaries (Sutter Instruments, Inc., Novato, Calif.) were used to manufacture pipettes with resistances of 3 to 5 MW. The voltage offset between the patch pipette and the bath solution were nulled immediately before patch formation. An agar bridge containing […] KCl was used to ground the bath solution. Voltages were recorded from a patch-clamp amplifier (AXOPATCH 200A, Axon Instruments). Data was collected on a Macintosh personal computer using Pulse+Pulsefit software (HEKA Elektronik). Whole-cell currents were recorded from single (sub confluent) cells with membrane capacitances nulled through the patch-clamp amplifier. The voltage ramp protocol included a voltage step from the holding potential to +60 mV for 40 ms followed by a ramp to −100 mV over a period of 400 ms followed by a return to the holding potential. During the protocol, voltage ramps were conducted once every 5 seconds for 10 minutes, yielding 120 traces. Conductances were computed by taking the derivative of a least-squares straight line fit to the I-V data plots using Igor Pro Software (Wavemetrics, Inc.). In cases in which the I-V plots are not linear over the entire voltage ramp (as in FIGS. 6AB), computation of the whole-cell conductance were restricted to a linear range, typically 0 to +60 mV. […]
On the technique in general: The patch-clamp technique gives a direct electrical read-out from membranes.

As to `O=C(O)c1cccnc1Nc1cccc(C(F)(F)F)c1` [niflumic acid], the “reversal potential of the niflumic acid-activated conductance” value (human TM cell, 100 μM niflumic acid, calculated reversal potentials Cl −22 mV, K −82 mV) is recorded as “very close to the Cl reversal potential; also recorded: quite close to the calculated reversal potential for Cl”. Moreover, the “niflumic acid-activated conductance, dependence on bath ions” value (human TM cells, niflumic acid 100 μM, K-free or Cl-free medium) is listed as “abolished in K-free medium but not in Cl-free medium”. Further, the “ion conductance of TM cells” value (normal human TM cells, isotonic bath, niflumic acid 100 μM) is reported as “activate an ion conductance; also recorded: rapid increase in conductance”.
